# Source: patent US10550105B2 (Ribon Therapeutics Inc., priority 2018, dated 2020)
# Biological target: PARP7 (Homo sapiens (Human), UniProt Q7Z3E1)
# Test: Enzymatic assay for inhibition of PARP7: TR-FRET displacement of biotinylated Probe A from the TIPARP active site
# Format: binding
# Details: Table A-1
# Procedure, shortened: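 Displacement of biotinylated Probe A from TIPARP was measured as the 665/615 nm time-resolved FRET ratio (excitation 320 nm, 90 μs delay) after a further 30 min at 25 °C. Inhibition across compound concentrations was fitted by dose-response regression, with the Hill slope free or fixed at 1 (3-parameter fit).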
# Chain of PARP7 (Q7Z3E1 whole entry): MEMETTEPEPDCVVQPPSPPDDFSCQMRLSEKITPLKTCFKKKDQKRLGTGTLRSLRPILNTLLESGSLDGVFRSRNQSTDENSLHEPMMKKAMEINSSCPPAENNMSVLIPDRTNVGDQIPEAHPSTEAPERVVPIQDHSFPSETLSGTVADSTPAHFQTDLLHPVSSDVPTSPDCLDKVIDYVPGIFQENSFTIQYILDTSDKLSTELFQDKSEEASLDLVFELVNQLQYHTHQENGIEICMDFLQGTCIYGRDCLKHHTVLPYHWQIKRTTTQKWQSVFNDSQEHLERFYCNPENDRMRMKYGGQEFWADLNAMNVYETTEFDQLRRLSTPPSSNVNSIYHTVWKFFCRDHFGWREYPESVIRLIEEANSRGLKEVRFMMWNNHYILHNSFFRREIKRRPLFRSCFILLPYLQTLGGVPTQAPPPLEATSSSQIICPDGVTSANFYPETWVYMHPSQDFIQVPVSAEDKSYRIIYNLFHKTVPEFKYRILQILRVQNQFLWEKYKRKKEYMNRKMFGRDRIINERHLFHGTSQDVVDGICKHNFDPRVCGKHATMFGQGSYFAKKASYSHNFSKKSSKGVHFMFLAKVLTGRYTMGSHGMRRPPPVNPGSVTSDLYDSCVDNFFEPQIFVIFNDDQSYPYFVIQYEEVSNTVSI
row,IC50 [nM],SMILES
1,< 100,"COCCOc1ccc2c(c1)CN(c1cn[nH]c(=O)c1C(F)(F)F)C2 [Example 229, 5-(5-(2-Methoxyethoxy)isoindolin-2-yl)-4-(trifluoromethyl)pyridazin-3(2H)-one]"
2,100 to 1000,"CC(=O)N1CCN(CCOc2cccc3c2CN(c2cn[nH]c(=O)c2Cl)C3)CC1 [Example 230, 5-(4-(2-(4-Acetylpiperazin-1-yl)ethoxy)isoindolin-2-yl)-4-chloropyridazin-3(2H)-one]"
3,≥ 1000,"NCC1c2ccccc2CN1c1cn[nH]c(=O)c1Cl (centres unmarked) [Example 231, 5-(1-(Aminomethyl)isoindolin-2-yl)-4-chloropyridazin-3(2H)-one]"
4,< 100,"O=c1[nH]ncc(N2Cc3cccc(Oc4cccnc4)c3C2)c1C(F)(F)F [Example 233, 5-(4-(Pyridin-3-yloxy)isoindolin-2-yl)-4-(trifluoromethyl)pyridazin-3(2H)-one]"
5,< 100,"COc1cc2c(cc1F)CN(c1cn[nH]c(=O)c1C(F)(F)F)C2 [Example 234, 5-(5-Fluoro-6-methoxyisoindolin-2-yl)-4-(trifluoromethyl)pyridazin-3(2H)-one]"
6,≥ 1000,"O=c1[nH]ncc(N2Cc3ccccc3C2CO)c1C(F)(F)F (centres unmarked) [Example 235, 5-(1-(Hydroxymethyl)isoindolin-2-yl)-4-(trifluoromethyl)pyridazin-3(2H)-one]"
7,< 100,"CN1CCC(Oc2ccc3c(c2)CN(c2cn[nH]c(=O)c2C(F)(F)F)C3)C1 (centres unmarked) [Example 238, 5-(5-((1-Methylpyrrolidin-3-yl)oxy)isoindolin-2-yl)-4-(trifluoromethyl)pyridazin-3(2H)-one]"
8,≥ 1000,"COCC1c2ccccc2CN1c1cn[nH]c(=O)c1C(F)(F)F (centres unmarked) [Example 239, 5-(1-(Methoxymethyl)isoindolin-2-yl)-4-(trifluoromethyl)pyridazin-3(2H)-one]"
9,100 to 1000,"O=c1[nH]ncc(N2Cc3cccc(OCCN4CCOCC4)c3C2)c1Cl [Example 240, 4-Chloro-5-(4-(2-morpholinoethoxy)isoindolin-2-yl)pyridazin-3(2H)-one]"
10,100 to 1000,"CC(=O)NCCOc1cccc2c1CN(c1cn[nH]c(=O)c1Cl)C2 [Example 241, N-(2-((2-(5-Chloro-6-oxo-1,6-dihydropyridazin-4-yl)isoindolin-4-yl)oxy)ethyl)acetamide]"
11,100 to 1000,"O=c1[nH]ncc(N2Cc3cccc(OC4CCNC4)c3C2)c1Cl (centres unmarked) [Example 242, 4-Chloro-5-(4-(pyrrolidin-3-yloxy)isoindolin-2-yl)pyridazin-3(2H)-one]"
12,≥ 1000,"CC(C)c1c(N2Cc3cccc(OCCO)c3C2)cn[nH]c1=O [Example 243, 5-(4-(2-Hydroxyethoxy)isoindolin-2-yl)-4-isopropylpyridazin-3(2H)-one]"
13,100 to 1000,"O=c1[nH]ncc(N2Cc3ccc(OC4CCCNC4)cc3C2)c1C(F)(F)F (centres unmarked) [Example 244, 5-(5-(Piperidin-3-yloxy)isoindolin-2-yl)-4-(trifluoromethyl)pyridazin-3(2H)-one]"
14,< 100,"O=c1[nH]ncc(N2Cc3cc(F)c(OCCO)cc3C2)c1C(F)(F)F [Example 245, 5-(5-Fluoro-6-(2-hydroxyethoxy)isoindolin-2-yl)-4-(trifluoromethyl)pyridazin-3(2H)-one]"
15,≥ 1000,"O=c1[nH]ncc(N2Cc3ccccc3[C@@H]2CO)c1C(F)(F)F [Example 246, (R)-5-(1-(Hydroxymethyl)isoindolin-2-yl)-4-(trifluoromethyl)pyridazin-3(2H)-one]"
16,≥ 1000,"O=c1[nH]ncc(N2Cc3ccccc3[C@H]2CO)c1C(F)(F)F [Example 247, (S)-5-(1-(Hydroxymethyl)isoindolin-2-yl)-4-(trifluoromethyl)pyridazin-3(2H)-one]"
17,≥ 1000,"CC(C)c1c(N2Cc3cccc(OC4CCNCC4)c3C2)cn[nH]c1=O [Example 248, 4-Isopropyl-5-(4-(piperidin-4-yloxy)isoindolin-2-yl)pyridazin-3(2H)-one]"
18,100 to 1000,"CC1c2ccccc2CN1c1cn[nH]c(=O)c1C(F)(F)F (centres unmarked) [Example 249, 5-(1-Methylisoindolin-2-yl)-4-(trifluoromethyl)pyridazin-3(2H)-one]"
19,100 to 1000,"C[C@H]1c2ccccc2CN1c1cn[nH]c(=O)c1C(F)(F)F [Example 250, (S)-5-(1-Methylisoindolin-2-yl)-4-(trifluoromethyl)pyridazin-3(2H)-one]"
20,≥ 1000,"C[C@@H]1c2ccccc2CN1c1cn[nH]c(=O)c1C(F)(F)F [Example 251, (R)-5-(1-Methylisoindolin-2-yl)-4-(trifluoromethyl)pyridazin-3(2H)-one]"
21,< 100,"CC(Oc1cccc2c1CN(c1cn[nH]c(=O)c1C(F)(F)F)C2)c1ccncc1 (centres unmarked) [Example 252, 5-(4-(1-(Pyridin-4-yl)ethoxy)isoindolin-2-yl)-4-(trifluoromethyl)pyridazin-3(2H)-one]"
22,100 to 1000,"O=c1[nH]ncc(N2Cc3cccc(N4CCOCC4)c3C2)c1C(F)(F)F [Example 253, 5-(4-Morpholinoisoindolin-2-yl)-4-(trifluoromethyl)pyridazin-3(2H)-one]"
23,100 to 1000,"O=c1[nH]ncc(N2Cc3cccc(NCC4CCCO4)c3C2)c1C(F)(F)F (centres unmarked) [Example 254, 5-(4-(((Tetrahydrofuran-2-yl)methyl)amino)isoindolin-2-yl)-4-(trifluoromethyl)pyridazin-3(2H)-one]"
24,≥ 1000,"CN1CCN(CCOc2cccc3c2CN(c2cn[nH]c(=O)c2Cl)C3)CC1 [Example 255, 4-Chloro-5-(4-(2-(4-methylpiperazin-1-yl)ethoxy)isoindolin-2-yl)pyridazin-3(2H)-one]"
25,≥ 1000,"O=c1[nH]ncc(N2Cc3cccc(OCCN4CCCCC4)c3C2)c1Cl [Example 256, 4-Chloro-5-(4-(2-(piperidin-1-yl)ethoxy)isoindolin-2-yl)pyridazin-3(2H)-one]"
26,≥ 1000,"CN1CCC(Oc2cccc3c2CN(c2cn[nH]c(=O)c2Cl)C3)CC1 [Example 257, 4-Chloro-5-(4-((1-methylpiperidin-4-yl)oxy)isoindolin-2-yl)pyridazin-3(2H)-one]"
27,≥ 1000,"CC(=O)N1CCC(Oc2cccc3c2CN(c2cn[nH]c(=O)c2Cl)C3)CC1 [Example 258, 5-(4-((1-Acetylpiperidin-4-yl)oxy)isoindolin-2-yl)-4-chloropyridazin-3(2H)-one]"
28,≥ 1000,"CN1CCC(Oc2cccc3c2CN(c2cn[nH]c(=O)c2Cl)C3)C1 (centres unmarked) [Example 259, 4-Chloro-5-(4-((1-methylpyrrolidin-3-yl)oxy)isoindolin-2-yl)pyridazin-3(2H)-one]"
29,< 100,"COCc1cccc2c1CN(c1cn[nH]c(=O)c1C(F)(F)F)C2 [Example 260, 5-(4-(Methoxymethyl)isoindolin-2-yl)-4-(trifluoromethyl)pyridazin-3(2H)-one]"
30,100 to 1000,"O=c1[nH]ncc(N2Cc3cccc(CO)c3C2)c1C(F)(F)F [Example 261, 5-(4-(Hydroxymethyl)isoindolin-2-yl)-4-(trifluoromethyl)pyridazin-3(2H)-one]"

row,SMILES,IC50 [nM]
1,"O=c1[nH]ncc(N2Cc3cccc(Oc4ccncc4)c3C2)c1C(F)(F)F [Example 232, 5-(4-(pyridin-4-yloxy)isoindolin-2-yl)-4-(trifluoromethyl)pyridazin-3(2H)-one trifluoroacetic acid]",< 100
2,"O=c1[nH]ncc(N2Cc3cccnc3C2)c1C(F)(F)F [Example 236, 5-(5,7-Dihydro-6H-pyrrolo[3,4-b]pyridin-6-yl)-4-(trifluoromethyl)pyridazin-3(2H)-one]",< 100
